Laboratory results reported in PMC6539495, “Anti-Cancer Activity of Novel Dihydrotestosterone-Derived Ring A-Condensed Pyrazoles on Androgen Non-Responsive Prostate Cancer Cell Lines” (International Journal of Molecular Sciences, 2019).

What was measured:
DU 145 cells = test: MTT cell viability assay on DU 145 prostate cancer cells; format: cell-based, human; settings: 72 hours
Protocol: (§1) HeLa, MCF-7 and MDA-MB-231 cells were obtained from Sigma-Aldrich and maintained as reported previously. MRC-5, PC-3, DU 145 cells were purchased from American Type Culture Collection (ATCC, Manassas, VA, USA). PC-3 and DU 145 were maintained in RPMI medium (Sigma-Aldrich) whereas MRC-5 cells were maintained in DMEM medium (Sigma-Aldrich). All media were complemented with 10% Fetal bovine serum (FBS, Sigma-Aldrich) 2 mM L-glutamine, 0.01% streptomycin and 0.005% ampicillin (Sigma-Aldrich). Cells were cultured under standard conditions in a 37 °C incubator containing 5% CO2 in 95% humidity.
(§2) Each test compound was dissolved in cell culture grade DMSO (Molar Chemicals, Halásztelek, Hungary) in a final concentration of […]. Antiproliferative action of the synthesized steroids was investigated by MTT assay. An amount of 5000 cells/well were seeded into 96 well plates. Twenty-four hours post seeding, all cell lines were treated with each compound in 10 and 30 μM concentrations for 72 hours. […] After 72 hours, cells were washed with PBS and incubated with culture medium containing 0.5 mg/mL MTT (3-(4, 5-dimethylthiazolyl-2)-2,5-diphenyltetrazolium bromide) reagent (SERVA, GmbH, Heidelberg, Germany) for an hour at 37 °C. Formazan crystals were solubilized in DMSO and extinction was measured at 570 nm using a Synergy HTX plate reader (BioTech-Hungary, Budapest, Hungary). MTT assays were performed at least three times using four independent biological replicates. Data were normalized to solvent controls and the graphical representation of the obtained data as well as the calculation of IC50 values were carried out by GraphPad Prism 7 software (GraphPad Software; San Diego, CA, USA).

MRC-5 cells = test: MTT cell viability assay on non-cancerous MRC-5 fibroblasts; format: cell-based; settings: 72 hours, MTT
Protocol: as §1, §2

HeLa cells = test: MTT cell viability assay on HeLa cervical cancer cells; format: cell-based, human; settings: 72 hours
Protocol: as §1, §2

MDA-MB-231 cells = test: MTT cell viability assay on MDA-MB-231 breast cancer cells; format: cell-based, human; settings: 72 hours
Protocol: as §1, §2

PC-3 cells = test: MTT cell viability assay on PC-3 prostate cancer cells; format: cell-based, human; settings: for antiproliferative potency against PC-3 prostate cancer cells compared to MRC-5 non-cancerous fibroblasts: primary screen
Protocol: as §1, §2

MCF-7 cells = test: MTT cell viability assay on MCF-7 breast cancer cells; format: cell-based, human; settings: 72 hours
Protocol: as §1, §2

Structure (SMILES) | Mean values (%) of primary growth inhibitory screen (viability in %), DU 145 (DU 145 cells; 10 µM) [%] | Mean values (%) of primary growth inhibitory screen (viability in %), DU 145 (DU 145 cells; 30 µM) [%] | Mean values (%) of primary growth inhibitory screen (viability in %), MRC-5 (MRC-5 cells; 10 µM) [%] | Mean values (%) of primary growth inhibitory screen (viability in %), MRC-5 (MRC-5 cells; 30 µM) [%] | Mean values (%) of primary growth inhibitory screen (viability in %), HeLa (HeLa cells; 10 µM) [%] | Mean values (%) of primary growth inhibitory screen (viability in %), HeLa (HeLa cells; 30 µM) [%] | Mean values (%) of primary growth inhibitory screen (viability in %), MDA-MB-231 (MDA-MB-231 cells; 10 µM) [%] | Mean values (%) of primary growth inhibitory screen (viability in %), MDA-MB-231 (MDA-MB-231 cells; 30 µM) [%] | Mean values (%) of primary growth inhibitory screen (viability in %), PC-3 (PC-3 cells; 10 µM, 72 hours, MTT) [%] | antiproliferative potency against PC-3 prostate cancer cells compared to MRC-5 non-cancerous fibroblasts (PC-3 cells; 10 µM) | Mean values (%) of primary growth inhibitory screen (viability in %), PC-3 (PC-3 cells; 30 µM, 72 hours, MTT) [%] | Mean values (%) of primary growth inhibitory screen (viability in %), MCF-7 (MCF-7 cells; 10 µM) [%] | Mean values (%) of primary growth inhibitory screen (viability in %), MCF-7 (MCF-7 cells; 30 µM) [%] | IC50 (DU 145 cells; ± SD) [µM] | IC50 (MRC-5 cells; ± SD) [µM] | IC50 (HeLa cells; ± SD) [µM] | IC50 (MDA-MB-231 cells; ± SD) [µM] | IC50 (PC-3 cells; MTT, 72 hours, ± SD) [µM] | IC50 (MCF-7 cells; ± SD) [µM] | antiproliferative potency against PC-3 prostate cancer cells compared to MRC-5 non-cancerous fibroblasts (PC-3 cells; 30 µM)
Cc1ccccc1-n1nc2c(c1C)C[C@@]1(C)[C@@H](CC[C@@H]3[C@@H]1CC[C@]1(C)[C@@H](O)CC[C@@H]31)C2 [4b, 17β-Hydroxy-1′-(2″-tolyl)-5′-methylpyrazolo[3′,4′:3,2]-5α-androstane] | 61.1 | 48.3 | 72.9 | 64.2 | 36.0 | 34.1 | 69.0 | 64.0 | 67.5 | significantly higher | 54.7 | 39.1 | 32.4 | – | – | – | – | – | – | –
Cc1ccc(-n2nc3c(c2C)CC2(C)C(CCC4C5CCC(O)C5(C)CCC42)C3)cc1 (stereo not drawn) [4c, 17β-Hydroxy-1′-(4″-tolyl)-5′-methylpyrazolo[3′,4′:3,2]-5α-androstane] | 87.3 | 5.1 | 75.0 | 37.5 | 56.1 | 8.0 | 81.7 | 12.0 | 44.0 | significantly higher | 4.2 | 49.5 | 5.4 | – | – | – | – | – | – | –
Cc1ccc(-n2nc3c(c2C)C[C@@]2(C)[C@@H](CC[C@@H]4[C@@H]2CC[C@]2(C)[C@@H](O)CC[C@@H]42)C3)c(C)c1 [4d, 17β-Hydroxy-1′-(2″,4″-dimethylphenyl)-5′-methylpyrazolo[3′,4′:3,2]-5α-androstane] | 70.2 | 2.3 | 78.9 | 0.8 | 65.6 | 56.1 | 92.0 | 47.9 | 53.4 | – | 3.6 | 74.5 | 10.5 | – | – | – | – | – | – | –
Cc1c2c(nn1-c1ccc(F)cc1)CC1CCC3C4CCC(O)C4(C)CCC3C1(C)C2 (stereo not drawn) [4f, 17β-Hydroxy-1′-(4″-fluorophenyl)-5′-methylpyrazolo[3′,4′:3,2]-5α-androstane] | 71.6 | 3.9 | 68.7 | 14.8 | 46.1 | 7.6 | 83.4 | 32.0 | 41.8 | – | 5.1 | 57.1 | 5.4 | – | – | – | – | – | – | –
Cc1c2c(nn1-c1ccc(Cl)cc1)C[C@@H]1CC[C@@H]3[C@H](CC[C@]4(C)[C@@H](O)CC[C@@H]34)[C@@]1(C)C2 [4g, 17β-Hydroxy-1′-(4″-chlorophenyl)-5′-methylpyrazolo[3′,4′:3,2]-5α-androstane] | 74.8 | 1.4 | 80.1 | 1.1 | 40.1 | 4.7 | 78.4 | 5.3 | 44.6 | significantly higher | 3.0 | 48.5 | 5.3 | 14.2 ± 1.3 | 15.6 ± 1.4 | 7.2 ± 0.4 | 12.6 ± 1.5 | 7.7 ± 1.2 | 4.4 ± 0.3 | –
Cc1c2c(nn1-c1ccc(Br)cc1)C[C@@H]1CC[C@@H]3[C@H](CC[C@]4(C)[C@@H](O)CC[C@@H]34)[C@@]1(C)C2 [4h, 17β-Hydroxy-1′-(4″-bromophenyl)-5′-methylpyrazolo[3′,4′:3,2]-5α-androstane] | 95.1 | 2.2 | 92.8 | 12.7 | 38.2 | 5.8 | 69.4 | 10.5 | 61.6 | – | 3.6 | 54.1 | 5.2 | – | – | – | – | – | – | –
Cc1c2c(nn1-c1ccc(C#N)cc1)C[C@@H]1CC[C@@H]3[C@H](CC[C@]4(C)[C@@H](O)CC[C@@H]34)[C@@]1(C)C2 [4i, 17β-Hydroxy-1′-(4″-cyanophenyl)-5′-methylpyrazolo[3′,4′:3,2]-5α-androstane] | 104.9 | 105.7 | 100.3 | 97.4 | 62.9 | 72.5 | 93.0 | 89.1 | 56.6 | significantly higher | 53.3 | 53.6 | 50.4 | – | – | – | – | – | – | significantly higher
Cc1ccccc1-n1nc2c(c1C)C[C@@]1(C)[C@@H](CC[C@@H]3[C@@H]1CC[C@]1(C)C(=O)CC[C@@H]31)C2 [5b, 1′-(2″-Tolyl)-5′-methylpyrazolo[3′,4′:3,2]-5α-androst-17-one] | 82.3 | 58.4 | 93.2 | 66.2 | 65.5 | 66.8 | 83.0 | 76.9 | 62.3 | – | 43.2 | 59.3 | 63.6 | – | – | – | – | – | – | significantly higher
